Source: patent publication EP4722207A1, “OXOISOINDOLINYL-SUBSTITUTED TETRAHYDROPYRIMIDINEDIONE DERIVATIVE AND USE THEREOF” (Gluetacs Therapeutics (Shanghai) Co., Ltd., priority 2023, dated 2024)

Legend:
MDA-MB-231 = assay: Cell viability assay (CellTiter-Meiluncell Luminescent), tumor cell proliferation, MDA-MB-231; details: Homo sapiens, MDA-MB-231, 96 h; for inhibition at 0.01 µM: read-out: Inhibition Rate at 10 nM (%); for inhibition at 0.5 µM: read-out: Inhibition Rate at 500 nM (%)
CK1α = target: T1, CK1α (Homo sapiens, UniProt P48729+Q96SW2); assay: Western-blot assay, substrate protein degradation in hPBMCs: CK1α; assay type: cell-based; details: 24 hours of compound treatment, 50 nM and 500 nM
T1 construct: effects of the compounds of the present disclosure on the expression of target proteins in cells; endogenous in cells; host or cells: human PBMCs (hPBMCs)
T1 sequence (P48729 whole entry): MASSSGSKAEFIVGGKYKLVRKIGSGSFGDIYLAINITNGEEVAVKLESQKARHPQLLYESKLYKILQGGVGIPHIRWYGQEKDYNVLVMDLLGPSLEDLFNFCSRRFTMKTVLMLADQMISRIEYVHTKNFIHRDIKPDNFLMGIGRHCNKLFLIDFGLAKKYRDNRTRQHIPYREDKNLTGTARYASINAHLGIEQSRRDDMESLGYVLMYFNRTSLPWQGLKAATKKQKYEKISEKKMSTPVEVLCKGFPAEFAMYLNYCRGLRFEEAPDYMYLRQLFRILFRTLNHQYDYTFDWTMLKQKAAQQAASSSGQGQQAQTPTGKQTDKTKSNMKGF
T1 sequence (Q96SW2 whole entry): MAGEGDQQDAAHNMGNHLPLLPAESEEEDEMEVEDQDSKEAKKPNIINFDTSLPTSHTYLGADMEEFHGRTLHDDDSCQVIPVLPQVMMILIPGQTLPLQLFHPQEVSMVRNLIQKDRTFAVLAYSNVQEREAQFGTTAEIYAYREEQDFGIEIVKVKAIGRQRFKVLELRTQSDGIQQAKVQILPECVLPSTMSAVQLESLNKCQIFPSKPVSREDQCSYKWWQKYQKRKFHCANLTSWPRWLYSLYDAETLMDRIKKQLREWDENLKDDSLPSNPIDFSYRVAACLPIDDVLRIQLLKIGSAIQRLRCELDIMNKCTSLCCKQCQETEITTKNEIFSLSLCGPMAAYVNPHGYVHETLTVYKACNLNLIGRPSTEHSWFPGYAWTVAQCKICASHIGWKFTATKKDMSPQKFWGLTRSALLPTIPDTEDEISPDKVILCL
T1 sequence (Q16531 whole entry partner): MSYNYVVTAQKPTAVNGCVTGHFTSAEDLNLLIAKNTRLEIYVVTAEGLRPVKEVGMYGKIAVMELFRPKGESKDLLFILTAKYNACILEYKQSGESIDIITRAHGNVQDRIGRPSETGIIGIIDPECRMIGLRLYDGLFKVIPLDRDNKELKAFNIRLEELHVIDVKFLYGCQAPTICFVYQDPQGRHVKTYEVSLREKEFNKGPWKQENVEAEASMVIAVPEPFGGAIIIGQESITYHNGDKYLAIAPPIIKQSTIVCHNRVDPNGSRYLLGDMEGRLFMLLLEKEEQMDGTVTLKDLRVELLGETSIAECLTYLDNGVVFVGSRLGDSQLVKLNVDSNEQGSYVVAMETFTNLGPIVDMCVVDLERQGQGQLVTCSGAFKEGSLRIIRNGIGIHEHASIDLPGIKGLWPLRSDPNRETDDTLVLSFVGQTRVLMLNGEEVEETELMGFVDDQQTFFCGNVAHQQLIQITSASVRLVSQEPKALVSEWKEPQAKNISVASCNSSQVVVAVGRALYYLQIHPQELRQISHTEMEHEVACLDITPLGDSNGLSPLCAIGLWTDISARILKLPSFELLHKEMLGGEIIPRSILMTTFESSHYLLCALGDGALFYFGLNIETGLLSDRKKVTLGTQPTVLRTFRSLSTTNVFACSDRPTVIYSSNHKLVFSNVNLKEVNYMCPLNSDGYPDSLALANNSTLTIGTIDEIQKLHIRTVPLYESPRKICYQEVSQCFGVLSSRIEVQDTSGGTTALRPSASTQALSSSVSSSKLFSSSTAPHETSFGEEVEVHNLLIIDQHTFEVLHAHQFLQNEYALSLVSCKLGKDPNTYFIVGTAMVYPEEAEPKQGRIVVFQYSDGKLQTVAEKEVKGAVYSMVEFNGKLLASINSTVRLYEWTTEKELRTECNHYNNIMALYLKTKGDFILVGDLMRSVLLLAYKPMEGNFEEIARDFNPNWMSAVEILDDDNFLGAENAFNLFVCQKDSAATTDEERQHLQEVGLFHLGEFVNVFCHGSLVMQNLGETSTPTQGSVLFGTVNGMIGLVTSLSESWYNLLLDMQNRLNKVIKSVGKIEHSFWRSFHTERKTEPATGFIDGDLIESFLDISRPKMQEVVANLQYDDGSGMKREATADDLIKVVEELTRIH

IKZF2 = target: T2, IKZF2 (Homo sapiens, UniProt Q96SW2+Q9UKS7); assay: Western-blot assay, substrate protein degradation in hPBMCs: IKZF2; assay type: cell-based; details: 24 hours of compound treatment, 50 nM and 500 nM
T2 construct: effects of the compounds of the present disclosure on the expression of target proteins in cells; endogenous in cells; host or cells: human PBMCs (hPBMCs)
T2 sequence (Q9UKS7 whole entry): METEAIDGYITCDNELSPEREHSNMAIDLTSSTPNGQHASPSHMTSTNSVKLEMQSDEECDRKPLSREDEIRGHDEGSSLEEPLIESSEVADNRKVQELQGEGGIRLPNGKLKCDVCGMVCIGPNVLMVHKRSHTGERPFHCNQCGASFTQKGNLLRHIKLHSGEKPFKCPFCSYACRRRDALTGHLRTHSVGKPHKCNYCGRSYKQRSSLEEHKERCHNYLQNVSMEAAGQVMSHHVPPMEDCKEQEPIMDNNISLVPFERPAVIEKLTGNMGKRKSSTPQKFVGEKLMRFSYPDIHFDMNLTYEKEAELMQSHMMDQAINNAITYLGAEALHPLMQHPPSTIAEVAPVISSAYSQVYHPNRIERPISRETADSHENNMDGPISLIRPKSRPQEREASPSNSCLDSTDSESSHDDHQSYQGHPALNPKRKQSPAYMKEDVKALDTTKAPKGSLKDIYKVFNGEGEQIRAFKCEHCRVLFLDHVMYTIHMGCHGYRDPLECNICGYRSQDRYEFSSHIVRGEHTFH
T2 sequence (Q96SW2 whole entry): as the sequence (Q96SW2 whole entry) above
T2 sequence (Q16531 whole entry partner): as the sequence (Q16531 whole entry partner) above

IKZF3 = target: T3, IKZF3 (Homo sapiens, UniProt Q96SW2+Q9UKT9); assay: Western-blot assay, substrate protein degradation in hPBMCs: IKZF3; assay type: cell-based; details: 24 hours of compound treatment, 50 nM and 500 nM
T3 construct: effects of the compounds of the present disclosure on the expression of target proteins in cells; endogenous in cells; host or cells: human PBMCs (hPBMCs)

MV-4-11 = assay: Cell viability assay (CellTiter-Meiluncell Luminescent), tumor cell proliferation, MV-4-11; details: Homo sapiens, MV4-11, 96 h; for inhibition at 0.01 µM: read-out: Inhibition Rate at 10 nM (%); for inhibition at 0.5 µM: read-out: Inhibition Rate at 500 nM (%)
H2228 = assay: Cell viability assay (CellTiter-Meiluncell Luminescent), tumor cell proliferation, H2228; details: Homo sapiens, NCI-H2228, 96 h; for inhibition at 0.01 µM: read-out: Inhibition Rate at 10 nM (%); for inhibition at 0.5 µM: read-out: Inhibition Rate at 500 nM (%)
WEE1 = target: T4, WEE1 (Homo sapiens, UniProt P30291+Q96SW2); assay: Western-blot assay, substrate protein degradation in hPBMCs: WEE1; assay type: cell-based; details: 24 hours of compound treatment, 50 nM and 500 nM
T4 construct: effects of the compounds of the present disclosure on the expression of target proteins in cells; endogenous in cells; host or cells: human PBMCs (hPBMCs)
T4 sequence (P30291 whole entry): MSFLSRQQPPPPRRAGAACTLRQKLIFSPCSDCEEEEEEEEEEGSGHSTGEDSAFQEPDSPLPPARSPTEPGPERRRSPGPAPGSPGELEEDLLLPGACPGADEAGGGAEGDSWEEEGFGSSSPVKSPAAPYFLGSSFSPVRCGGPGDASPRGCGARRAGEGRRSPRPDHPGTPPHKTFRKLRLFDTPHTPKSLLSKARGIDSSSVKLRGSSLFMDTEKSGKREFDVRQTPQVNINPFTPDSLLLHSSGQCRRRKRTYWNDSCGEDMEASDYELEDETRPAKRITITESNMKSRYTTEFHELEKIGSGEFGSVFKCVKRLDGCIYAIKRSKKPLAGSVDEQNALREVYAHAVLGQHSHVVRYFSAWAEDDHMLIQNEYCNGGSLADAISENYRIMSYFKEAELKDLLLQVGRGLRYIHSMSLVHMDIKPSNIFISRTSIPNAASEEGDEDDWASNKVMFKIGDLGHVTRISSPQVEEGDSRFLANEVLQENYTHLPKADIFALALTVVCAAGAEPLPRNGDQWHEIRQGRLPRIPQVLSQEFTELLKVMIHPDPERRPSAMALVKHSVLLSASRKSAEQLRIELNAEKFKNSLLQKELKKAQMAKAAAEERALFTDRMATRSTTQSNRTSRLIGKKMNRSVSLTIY
T4 sequence (Q96SW2 whole entry): as the sequence (Q96SW2 whole entry) above
T4 sequence (Q16531 whole entry partner): as the sequence (Q16531 whole entry partner) above

GSPT1 = target: T5, GSPT1 (Homo sapiens, UniProt P15170+Q96SW2); assay: Western-blot assay, substrate protein degradation in hPBMCs: GSPT1; assay type: cell-based; details: 24 hours of compound treatment, 50 nM and 500 nM
T5 construct: effects of the compounds of the present disclosure on the expression of target proteins in cells; endogenous in cells; host or cells: human PBMCs (hPBMCs)
T5 sequence (P15170 whole entry): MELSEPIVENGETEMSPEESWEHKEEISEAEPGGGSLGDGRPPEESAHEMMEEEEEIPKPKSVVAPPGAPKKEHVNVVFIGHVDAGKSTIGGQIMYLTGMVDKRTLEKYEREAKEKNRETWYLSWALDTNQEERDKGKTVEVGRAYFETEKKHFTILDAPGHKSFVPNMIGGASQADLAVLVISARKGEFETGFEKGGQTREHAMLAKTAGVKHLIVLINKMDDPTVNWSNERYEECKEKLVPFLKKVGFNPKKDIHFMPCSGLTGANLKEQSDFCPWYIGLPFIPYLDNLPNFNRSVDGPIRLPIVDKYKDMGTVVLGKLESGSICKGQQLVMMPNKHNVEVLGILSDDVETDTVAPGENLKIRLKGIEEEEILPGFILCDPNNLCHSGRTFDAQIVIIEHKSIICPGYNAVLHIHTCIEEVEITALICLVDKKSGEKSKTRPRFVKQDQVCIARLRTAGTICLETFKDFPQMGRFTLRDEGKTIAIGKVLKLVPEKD
T5 sequence (Q96SW2 whole entry): as the sequence (Q96SW2 whole entry) above
T5 sequence (Q16531 whole entry partner): as the sequence (Q16531 whole entry partner) above

IKZF1 = target: T6, IKZF1 (Homo sapiens, UniProt Q13422+Q96SW2); assay: Western-blot assay, substrate protein degradation in hPBMCs: IKZF1; assay type: cell-based; details: 24 hours of compound treatment, 50 nM and 500 nM
T6 construct: effects of the compounds of the present disclosure on the expression of target proteins in cells; endogenous in cells; host or cells: human PBMCs (hPBMCs)
T6 sequence (Q13422 whole entry): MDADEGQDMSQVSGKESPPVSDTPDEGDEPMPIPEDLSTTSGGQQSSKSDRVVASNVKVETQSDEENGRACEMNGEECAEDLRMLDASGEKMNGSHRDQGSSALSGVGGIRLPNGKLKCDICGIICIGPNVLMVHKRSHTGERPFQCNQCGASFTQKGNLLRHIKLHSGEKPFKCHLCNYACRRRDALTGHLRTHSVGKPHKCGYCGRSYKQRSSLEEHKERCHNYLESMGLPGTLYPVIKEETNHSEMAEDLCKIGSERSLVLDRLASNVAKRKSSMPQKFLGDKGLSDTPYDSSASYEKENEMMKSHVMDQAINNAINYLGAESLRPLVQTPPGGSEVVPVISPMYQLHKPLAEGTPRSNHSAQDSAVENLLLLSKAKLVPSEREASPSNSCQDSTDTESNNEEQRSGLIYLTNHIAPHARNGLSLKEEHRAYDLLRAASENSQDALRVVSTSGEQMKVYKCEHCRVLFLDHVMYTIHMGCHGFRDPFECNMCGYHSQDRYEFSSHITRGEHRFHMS
T6 sequence (Q96SW2 whole entry): as the sequence (Q96SW2 whole entry) above
T6 sequence (Q16531 whole entry partner): as the sequence (Q16531 whole entry partner) above

H292 = assay: Cell viability assay (CellTiter-Meiluncell Luminescent), tumor cell proliferation, H292; details: Homo sapiens, NCI-H292, 96 h; for inhibition at 0.01 µM: read-out: Inhibition Rate at 10 nM (%); for inhibition at 0.5 µM: read-out: Inhibition Rate at 500 nM (%)

Row | Compound | inhibition at 0.01 µM (MDA-MB-231) | inhibition at 0.5 µM (MDA-MB-231) | substrate protein remaining % CK1α (CK1α) | substrate protein remaining % IKZF2 (IKZF2) | substrate protein remaining % IKZF3 (IKZF3) | inhibition at 0.01 µM (MV-4-11) | inhibition at 0.5 µM (MV-4-11) | inhibition at 0.01 µM (H2228) | inhibition at 0.5 µM (H2228) | substrate protein remaining % WEE1 (WEE1) | substrate protein remaining % GSPT1 (GSPT1) | substrate protein remaining % IKZF1 (IKZF1) | inhibition at 0.01 µM (H292) | inhibition at 0.5 µM (H292)
1 | O=C1CCN(N2Cc3cc(CN4CCC(c5ncnc6sccc56)CC4)ccc3C2=O)C(=O)N1 [GT-08082, 1-(1-oxo-5-((4-(thieno[2,3-d]pyrimidin-4-yl)piperidin-1-yl)methyl)isoindolin-2-yl)dihydropyrimidine-2,4(1H,3H)-dione] | 25 to 40% | 18 to 25% | A (0% ≤ substrate protein remaining % ≤ 80%) | B (80%< substrate protein remaining %≤ 100%) | B (80%< substrate protein remaining %≤ 100%) | 40 to 60% | 40 to 60% | 25 to 30% | 20 to 25% | A (0% ≤ substrate protein remaining % ≤ 80%) | A (0% ≤ substrate protein remaining % ≤ 80%) | B (80%< substrate protein remaining %≤ 100%) | 20 to 40% | 20 to 40%
2 | Cc1sc2ncnc(C3CCN(Cc4ccc5c(c4)CN(N4CCC(=O)NC4=O)C5=O)CC3)c2c1C [GT-08084, 1-(5-((4-(5,6-dimethylthieno[2,3-d]pyrimidin-4-yl)piperidin-1-yl)methyl)-1-oxoisoindolin-2-yl)dihydropyrimidine-2,4(1H,3H)-dione] | 5 to 10% | 18 to 25% | A (0% ≤ substrate protein remaining % ≤ 80%) | B (80%< substrate protein remaining %≤ 100%) | B (80%< substrate protein remaining %≤ 100%) | 18 to 25% | 10 to 18% | 10 to 15% | 25 to 30% | B (80%< substrate protein remaining %≤ 100%) | A (0% ≤ substrate protein remaining % ≤ 80%) | B (80%< substrate protein remaining %≤ 100%) | 1 to 5% | 10 to 15%
3 | Cc1nc(C2CCN(Cc3ccc4c(c3)CN(N3CCC(=O)NC3=O)C4=O)CC2)c2c3c(sc2n1)CCCC3 [GT-08089, 1-(5-((4-(2-methyl-5,6,7,8-tetrahydrobenzo[4,5]thieno[2,3-d]pyrimidin-4-yl)piperidin-1-yl)methyl)-1-oxoisoindolin-2-yl)dihydropyrimidine-2,4(1H,3H)-dione] | 18 to 25% | 25 to 40% | A (0% ≤ substrate protein remaining % ≤ 80%) | B (80%< substrate protein remaining %≤ 100%) | B (80%< substrate protein remaining %≤ 100%) | – | – | 20 to 25% | 20 to 25% | A (0% ≤ substrate protein remaining % ≤ 80%) | A (0% ≤ substrate protein remaining % ≤ 80%) | B (80%< substrate protein remaining %≤ 100%) | 20 to 40% | 20 to 40%
4 | Cc1csc2ncnc(N3CCN(Cc4ccc5c(c4)C(=O)N(N4CCC(=O)NC4=O)C5=O)CC3)c12 [GT-08091, 2-(2,4-dioxotetrahydropyrimidin-1(2H)-yl)-5-((4-(5-methylthieno[2,3-d]pyrimidin-4-yl)piperazin-1-yl)methyl)isoindoline-1,3-dione] | 15 to 18% | 18 to 25% | A (0% ≤ substrate protein remaining % ≤ 80%) | B (80%< substrate protein remaining %≤ 100%) | B (80%< substrate protein remaining %≤ 100%) | – | – | 20 to 25% | 20 to 25% | A (0% ≤ substrate protein remaining % ≤ 80%) | A (0% ≤ substrate protein remaining % ≤ 80%) | B (80%< substrate protein remaining %≤ 100%) | 20 to 40% | 20 to 40%
5 | Cc1sc2ncnc(N3CCN(Cc4ccc5c(c4)C(=O)N(N4CCC(=O)NC4=O)C5=O)CC3)c2c1C [GT-08094, 5-((4-(5,6-dimethylthieno[2,3-d]pyrimidin-4-yl)piperazin-1-yl)methyl)-2-(2,4-dioxotetrahydropyrimidin-1(2H)-yl)isoindoline-1,3-dione] | 25 to 40% | 25 to 40% | A (0% ≤ substrate protein remaining % ≤ 80%) | B (80%< substrate protein remaining %≤ 100%) | B (80%< substrate protein remaining %≤ 100%) | – | – | 30 to 40% | 25 to 30% | A (0% ≤ substrate protein remaining % ≤ 80%) | A (0% ≤ substrate protein remaining % ≤ 80%) | B (80%< substrate protein remaining %≤ 100%) | 20 to 40% | 20 to 40%
6 | O=C1CCN(N2C(=O)c3ccc(CN4CCN(c5ncnc6sc(-c7ccccc7)cc56)CC4)cc3C2=O)C(=O)N1 [GT-08097, 2-(2,4-dioxotetrahydropyrimidin-1(2H)-yl)-5-((4-(6-phenylthieno[2,3-d]pyrimidin-4-yl)piperazin-1-yl)methyl)isoindoline-1,3-dione] | 10 to 15% | 18 to 25% | A (0% ≤ substrate protein remaining % ≤ 80%) | B (80%< substrate protein remaining %≤ 100%) | B (80%< substrate protein remaining %≤ 100%) | – | – | 15 to 20% | 30 to 40% | A (0% ≤ substrate protein remaining % ≤ 80%) | A (0% ≤ substrate protein remaining % ≤ 80%) | B (80%< substrate protein remaining %≤ 100%) | 5 to 10% | 10 to 15%
7 | Cc1nc(C2CCN(Cc3ccc4c(c3)C(=O)N(N3CCC(=O)NC3=O)C4=O)CC2)c2c3c(sc2n1)CCCC3 [GT-08111, 2-(2,4-dioxotetrahydropyrimidin-1(2H)-yl)-5-((4-(2-methyl-5,6,7,8-tetrahydrobenzo[4,5]thieno[2,3-d]pyrimidin-4-yl)piperidin-1-yl)methyl)isoindoline-1,3-dione] | 25 to 40% | 25 to 40% | A (0% ≤ substrate protein remaining % ≤ 80%) | B (80%< substrate protein remaining %≤ 100%) | B (80%< substrate protein remaining %≤ 100%) | – | – | 20 to 25% | 25 to 30% | B (80%< substrate protein remaining %≤ 100%) | A (0% ≤ substrate protein remaining % ≤ 80%) | B (80%< substrate protein remaining %≤ 100%) | 20 to 40% | 20 to 40%
8 | O=C1CCN(N2Cc3cc(CN4CCC(c5ncnc6sc7c(c56)CCCC7)CC4)ccc3C2=O)C(=O)N1 [GT-08112, 1-(1-oxo-5-((4-(5,6,7,8-tetrahydrobenzo[4,5]thieno[2,3-d]pyrimidin-4-yl)piperidin-1-yl)methyl)isoindolin-2-yl)dihydropyrimidine-2,4(1H,3H)-dione] | 15 to 18% | 25 to 40% | B (80%< substrate protein remaining %≤ 100%) | B (80%< substrate protein remaining %≤ 100%) | B (80%< substrate protein remaining %≤ 100%) | – | – | 15 to 20% | 25 to 30% | B (80%< substrate protein remaining %≤ 100%) | A (0% ≤ substrate protein remaining % ≤ 80%) | B (80%< substrate protein remaining %≤ 100%) | 15 to 20% | 20 to 40%
9 | O=C1CCN(N2Cc3cc(CN4CCC(c5cccc(F)c5F)CC4)ccc3C2=O)C(=O)N1 [GT-08194, 1-(5-((4-(2,3-difluorophenyl)piperidin-1-yl)methyl)-1-oxoisoindolin-2-yl)dihydropyrimidine-2,4(1H,3H)-dione] | 18 to 25% | 25 to 40% | B (80%< substrate protein remaining %≤ 100%) | B (80%< substrate protein remaining %≤ 100%) | B (80%< substrate protein remaining %≤ 100%) | 18 to 25% | 60 to 80% | 20 to 25% | 20 to 25% | B (80%< substrate protein remaining %≤ 100%) | A (0% ≤ substrate protein remaining % ≤ 80%) | A (0% ≤ substrate protein remaining % ≤ 80%) | – | –
